Results as given in US20100048699A1, “CHEMICAL COMPOUNDS” (SYNGENTA CROP PROTECTION, INC., priority 2006, published 2010).

Key:
Myzus persicae [1] = experiment: Myzus persicae (green peach aphid) pea seedling root uptake test; conditions: 144 h, read-out: control of Myzus persicae
Myzus persicae [2] = experiment: Myzus persicae (green peach aphid) sunflower leaf disc spray test; conditions: foliar, 144 h, read-out: control of Myzus persicae
Tetranychus urticae = Tetranychus urticae (two-spotted spider mite) bean leaf disc spray test; conditions: foliar, 192 h, read-out: control of Tetranychus urticae

SMILES | pest or weed control at 24 ppm (Myzus persicae [1]) | pest or weed control at 200 ppm (Myzus persicae [2]) | pest or weed control at 200 ppm (Tetranychus urticae)
COC(=O)OCCNC(=S)NC1CCc2c(F)cccc21 (stereo not shown) [Compound 3.038, carbonic acid 2-[3(4-fluoro-indan-1-yl)-thioureido]-ethyl methylester] | ≥ 80% | ≥ 80% | ≥ 80%
O=C(OCCNC(=S)NC1CCc2c(F)cccc21)N1CCCCC1 (stereo not shown) [Compound 11.001] | – | ≥ 80% | ≥ 80%
O=C(OCCNC(=S)NC1CCc2c(F)cccc21)c1ccc(F)cc1 (stereo not shown) [Compound 11.003] | ≥ 80% | ≥ 80% | ≥ 80%
N#Cc1ccc(C(=O)OCCNC(=S)NC2CCc3c(F)cccc32)cc1 (stereo not shown) [Compound 11.005] | ≥ 80% | ≥ 80% | ≥ 80%
O=C(/C=C/c1ccccc1)OCCNC(=S)NC1CCc2c(F)cccc21 (stereo not shown) [Compound 11.006] | ≥ 80% | ≥ 80% | ≥ 80%
COc1ccccc1C(=O)OCCNC(=S)NC1CCc2c(F)cccc21 (stereo not shown) [Compound 11.007] | ≥ 80% | ≥ 80% | ≥ 80%
COc1ccc(C(=O)OCCNC(=S)NC2CCc3c(F)cccc32)cc1 (stereo not shown) [Compound 11.009] | ≥ 80% | ≥ 80% | ≥ 80%
O=C(OCCNC(=S)NC1CCc2c(F)cccc21)c1ccc(Cl)cc1 (stereo not shown) [Compound 11.010] | ≥ 80% | ≥ 80% | ≥ 80%
O=C(OCCNC(=S)NC1CCc2c(F)cccc21)c1cccc(Cl)c1 (stereo not shown) [Compound 11.011] | ≥ 80% | ≥ 80% | ≥ 80%
O=C(OCCNC(=S)NC1CCc2c(F)cccc21)c1ccccc1Cl (stereo not shown) [Compound 11.012] | ≥ 80% | ≥ 80% | ≥ 80%
O=C(OCCNC(=S)NC1CCc2c(F)cccc21)c1cc(F)ccc1F (stereo not shown) [Compound 11.013] | ≥ 80% | ≥ 80% | ≥ 80%
O=C(OCCNC(=S)NC1CCc2c(F)cccc21)c1ccc(F)cc1F (stereo not shown) [Compound 11.014] | ≥ 80% | ≥ 80% | ≥ 80%
CN(C)c1ccc(C(=O)OCCNC(=S)NC2CCc3c(F)cccc32)cc1 (stereo not shown) [Compound 11.015] | – | ≥ 80% | –
COc1ccc(CC(=O)OCCNC(=S)NC2CCc3c(F)cccc32)cc1 (stereo not shown) [Compound 11.016] | ≥ 80% | ≥ 80% | ≥ 80%
O=C(Cc1ccc(Cl)cc1)OCCNC(=S)NC1CCc2c(F)cccc21 (stereo not shown) [Compound 11.018] | ≥ 80% | ≥ 80% | ≥ 80%
O=C(OCCNC(=S)NC1CCc2c(F)cccc21)c1ccccc1C(F)(F)F (stereo not shown) [Compound 11.023] | ≥ 80% | ≥ 80% | ≥ 80%
O=C(OCCNC(=S)NC1CCc2c(F)cccc21)c1ccc(C(F)(F)F)cc1 (stereo not shown) [Compound 11.024] | ≥ 80% | ≥ 80% | ≥ 80%
O=C(/C=C/c1ccc([N+](=O)[O-])cc1)OCCNC(=S)NC1CCc2c(F)cccc21 (stereo not shown) [Compound 11.027] | – | ≥ 80% | –
COc1ccc(CC(=O)OCCNC(=S)NC2CCc3c(F)cccc32)cc1OC (stereo not shown) [Compound 11.028] | ≥ 80% | ≥ 80% | ≥ 80%
O=C(OCCNC(=S)NC1CCc2c(F)cccc21)OCc1ccc([N+](=O)[O-])cc1 (stereo not shown) [Compound 11.030] | ≥ 80% | ≥ 80% | ≥ 80%
O=C(OCCNC(=S)NC1CCc2c(F)cccc21)c1cccc2c1OC(F)(F)O2 (stereo not shown) [Compound 11.031] | ≥ 80% | ≥ 80% | –
O=C(OCCNC(=S)NC1CCc2c(F)cccc21)c1ccc(F)cc1C(F)(F)F (stereo not shown) [Compound 11.034] | ≥ 80% | ≥ 80% | –
O=C(OCCNC(=S)NC1CCc2c(F)cccc21)c1ccc(F)c(C(F)(F)F)c1 (stereo not shown) [Compound 11.035] | ≥ 80% | ≥ 80% | ≥ 80%
O=C(OCCNC(=S)NC1CCc2c(F)cccc21)N(c1ccccc1)c1ccccc1 (stereo not shown) [Compound 11.039] | – | ≥ 80% | –
CCCC(C(=O)OCCNC(=S)NC1CCc2c(F)cccc21)c1ccc(Cl)cc1Cl (stereo not shown) [Compound 11.040] | ≥ 80% | ≥ 80% | ≥ 80%

SMILES | pest or weed control at 24 ppm (Myzus persicae [1]) | pest or weed control at 200 ppm (Myzus persicae [2]) | pest or weed control at 200 ppm (Tetranychus urticae)
O=C(OCc1ccccc1C(=O)OCCNC(=S)NC1CCc2c(F)cccc21)c1ccccc1 (stereo not shown) [Compound 11.041] | – | ≥ 80% | ≥ 80%
Cc1ccc(-n2c(=O)cc(C(F)(F)F)n(C)c2=O)cc1C(=O)OCCNC(=S)NC1CCc2c(F)cccc21 (stereo not shown) [Compound 11.043] | – | ≥ 80% | ≥ 80%
Cc1cc(C(=O)OCCNC(=S)NC2CCc3c(F)cccc32)c(C(F)(F)F)o1 (stereo not shown) [Compound 11.044] | ≥ 80% | ≥ 80% | ≥ 80%
Cc1oc(C(C)(C)C)cc1C(=O)OCCNC(=S)NC1CCc2c(F)cccc21 (stereo not shown) [Compound 11.045] | ≥ 80% | ≥ 80% | –
Cc1c(S(=O)(=O)c2ccc(Cl)cc2)csc1C(=O)OCCNC(=S)NC1CCc2c(F)cccc21 (stereo not shown) [Compound 11.046] | – | ≥ 80% | ≥ 80%
COc1cc(C(=O)OCCNC(=S)NC2CCc3c(F)cccc32)cc(Cl)n1 (stereo not shown) [Compound 11.047] | ≥ 80% | ≥ 80% | ≥ 80%
O=C(/C=C/c1cccc(C(F)(F)F)c1)OCCNC(=S)NC1CCc2c(F)cccc21 (stereo not shown) [Compound 11.048] | ≥ 80% | ≥ 80% | ≥ 80%
O=C(OCCNC(=S)NC1CCc2c(F)cccc21)c1cncc(Br)c1 (stereo not shown) [Compound 11.049] | ≥ 80% | ≥ 80% | –
CCC(Oc1ccccc1)C(=O)OCCNC(=S)NC1CCc2c(F)cccc21 (stereo not shown) [Compound 11.051] | ≥ 80% | ≥ 80% | ≥ 80%
O=C(OCCNC(=S)NC1CCc2c(F)cccc21)c1cc(C(F)(F)F)ccc1F (stereo not shown) [Compound 11.052] | – | ≥ 80% | ≥ 80%
C/C(=C\c1ccccc1)C(=O)OCCNC(=S)NC1CCc2c(F)cccc21 (stereo not shown) [Compound 11.053] | ≥ 80% | ≥ 80% | ≥ 80%
O=C(OCCNC(=S)NC1CCc2c(F)cccc21)c1ccccc1I (stereo not shown) [Compound 11.054] | ≥ 80% | ≥ 80% | –
O=C(OCCNC(=S)NC1CCc2c(F)cccc21)C1Cc2ccccc2O1 (stereo not shown) [Compound 11.055] | ≥ 80% | ≥ 80% | ≥ 80%
O=C(OCCNC(=S)NC1CCc2c(F)cccc21)c1ccc(Cl)c([N+](=O)[O-])c1 (stereo not shown) [Compound 11.058] | ≥ 80% | ≥ 80% | ≥ 80%
O=C(NCCOC(=O)c1cnn(-c2ccccc2)c1C(F)(F)F)NC1CCc2c(F)cccc21 (stereo not shown) [Compound 11.059] | ≥ 80% | ≥ 80% | ≥ 80%
Cc1ccccc1CC(=O)OCCNC(=S)NC1CCc2c(F)cccc21 (stereo not shown) [Compound 11.060] | ≥ 80% | ≥ 80% | ≥ 80%
O=C(Cc1ccccc1F)OCCNC(=S)NC1CCc2c(F)cccc21 (stereo not shown) [Compound 11.062] | ≥ 80% | ≥ 80% | ≥ 80%
O=C(Cc1ccc(F)cc1)OCCNC(=S)NC1CCc2c(F)cccc21 (stereo not shown) [Compound 11.063] | ≥ 80% | ≥ 80% | ≥ 80%
O=C(OCCNC(=S)NC1CCc2c(F)cccc21)c1ccc(SC(F)(F)C(F)(F)F)cc1 (stereo not shown) [Compound 11.064] | – | ≥ 80% | ≥ 80%
O=C(Cc1cccc(C(F)(F)F)c1)OCCNC(=S)NC1CCc2c(F)cccc21 (stereo not shown) [Compound 11.065] | ≥ 80% | ≥ 80% | ≥ 80%
Cc1ccsc1C(=O)OCCNC(=S)NC1CCc2c(F)cccc21 (stereo not shown) [Compound 11.067] | – | ≥ 80% | ≥ 80%
O=C(OCCNC(=S)NC1CCc2c(F)cccc21)c1cc(Cl)sc1Cl (stereo not shown) [Compound 11.068] | – | ≥ 80% | ≥ 80%
Cc1c(C(=O)OCCNC(=S)NC2CCc3c(F)cccc32)ncn1C(C)(C)C (stereo not shown) [Compound 11.070] | ≥ 80% | ≥ 80% | ≥ 80%
Cc1nn(-c2ccccc2)nc1C(=O)OCCNC(=S)NC1CCc2c(F)cccc21 (stereo not shown) [Compound 11.072] | – | ≥ 80% | ≥ 80%
